Test results: patent publication US10201564B2, “Methods of using inhaled nitric oxide gas for treatment of acute respiratory distress syndrome in children” (Mallinckrodt Hospital Products IP Limited, priority 2014, dated 2019)
Where “and” joins values, the source holds several entries; their conditions need not be identical. Equal entries are not always repeated. Entries after “also recorded” stand apart in the source; their conditions may differ.

Tests used:
Type in all cases: in vivo, human
[1] = system: pediatric subjects with acute hypoxemic respiratory failure (AHRF); experiment: Pediatric AHRF study, nitric oxide 5 ppm versus placebo: efficacy and subject outcome
Description: This was a prospective, multicenter, randomized, double-blind, placebo-controlled, parallel-group study of the safety and efficacy of inhaled nitric oxide in pediatric subjects with acute hypoxemic respiratory failure (AHRF). The subjects were randomized to receive either 5 ppm inhaled nitric oxide or placebo.
Nitric Oxide for inhalation at 5 ppm was administered continuously into the inspiratory limb of the ventilator circuit in mechanically ventilated subjects using a blinded version of the INOvent® delivery system.
Subjects received 100% treatment gas (nitric oxide 5 ppm or placebo [nitrogen gas]) until Day 28 or extubation, whichever occurred first.
Placebo consisting of 100% Grade 5 nitrogen gas was administered continuously into the inspiratory limb of the ventilator circuit in mechanically ventilated subjects using a blinded version of the INOvent® delivery system at a rate equivalent to a 5 ppm dose of nitric oxide.
This was a prospective, multicenter, randomized, double-blind, placebo-controlled, Phase III study to assess the effects of nitric oxide for inhalation in the treatment of acute hypoxic respiratory failure (AHRF) in pediatric subjects. The study population consisted of male and female pediatric subjects, aged 44 weeks postconceptional age to 16 years age, who were admitted to the pediatric intensive care unit (PICU) and who required intubation because of AHRF. The inclusion/exclusion criteria are described in the Patients section below.
(§1) Standardized ventilatory management and weaning procedures were used. Ventilatory management was used based on an “open lung approach” using positive end-expiratory pressure (PEEP) to increase lung volume and limiting tidal volumes to reduce plateau pressures. Subjects received nitric oxide for inhalation at 5 ppm or placebo (100% Grade 5 nitrogen gas) into the inspiratory limb of the ventilator circuit using a blinded version of the INOvent® delivery system. The subjects were treated until Day 28 or extubation, whichever occurred first. Subjects were assessed daily using a spontaneous breathing trial, according to the institution's standard of care. Arterial blood gases (ABG), ventilator settings, methemoglobin, oxygenation index, systolic blood pressure, diastolic blood pressure, Pediatric Risk of Mortality (PRISM) III score, and subject positioning (prone or supine) were performed/recorded at specified times during the study. Selected centers also performed plasma cytokine assays, bronchoalveolar lavage fluid (BALF) assays, and a 6-month follow-up assessment.
Inclusion criteria for patients were as follows: • 1. 44 weeks post-conceptional age to 16 years of age • 2. Oxygenation Index (OI)≥12 cm H2O/mmHg (as determined by two separate measurements taken 30 minutes to 4 hours apart) • 3. Recent chest x-ray (within 24 hours) showing at least unilateral infiltrates • 4. Mechanically ventilated (oral or nasopharyngeal)<7 days
Exclusion criteria for patients were as follows: • 1. Immunocompromised • 2. Received a bone marrow transplant • 3. Active oncological condition • 4. Persistent right to left intracardiac shunt • 5. Cardiovascular surgery within the last 14 days • 6. Status asthmaticus • 7. Decision by primary care physician not to provide full support (futility) • 8. Received treatment with nitric oxide for inhalation or other investigational medications with 24 hours prior to study initiation. • 9. Chronically ventilated • 10. Pregnant Study Design and Schedule of Assessments:
Extubation was considered when: • i. Pressure support of <10 cm H2O • ii. FiO2<0.60 • iii. PEEP<6 cm H2O • iv. Nitric oxide has been discontinued for 30 minutes
Extubation occurred within 12 hours of meeting the above criteria. If a patient met the above criteria but was not extubated within 12 hours, the reason (i.e. airway protection, surgery, secretions clearance, etc.) was documented.

[2] = system: patients with moderately severe Acute Lung Injury (ALI); experiment: Adult ALI/ARDS study: safety results (adverse events); details: initial 28-day study period
Description: A large-scale, randomized, blinded, placebo-controlled study was carried out in the Intensive Care Units (ICUs) of 46 US hospitals to evaluate the efficacy of low-dose (5 ppm) iNO in 385 patients with moderately severe Acute Lung Injury (ALI). The primary endpoint of this study was number of days alive and off assisted breathing.
Safety results for the initial 28-day study period have been reported and are summarized briefly here. A total of 630 adverse events (AEs) were reported for patients treated with iNO versus 666 events for those who received placebo. Respiratory system AEs occurred in 51% versus 61% of patients receiving iNO and placebo, respectively, primarily due to higher frequencies of pneumonia, pneumothorax, and apnea in the placebo group. Frequency of other AEs was similar in both groups.
Patients were randomly assigned to receive either inhaled placebo gas (nitrogen) or 5 ppm of iNO (INO Therapeutics Inc., Port Allen, La.). All patients, healthcare professionals, and investigators were blinded to the assigned treatment. Inhaled NO was administered via INOvent® delivery system (Datex-Ohmeda, Madison, Wis.) that blended treatment gas (nitrogen or NO at 100-ppm balance nitrogen) 1:20 with ventilator gases to achieve a target ppm value in the inspiratory limb of the ventilator.

[3] = system: pediatric subjects with acute hypoxemic respiratory failure (AHRF); experiment: Pediatric AHRF study: vital signs (systolic and diastolic blood pressure); details: 5 ppm
Description: as §1
The following assessments were made at baseline: arterial blood gases, ventilator settings, methemoglobin, prone position, PRISM III score, oxygenation index, systolic and diastolic blood pressure, bronchoalveolar lavage fluid assay and plasma cytokine.
The following assessments were made at 24 hours±2 hours after the start of therapy: arterial blood gases, ventilator settings, methemoglobin, systolic and diastolic blood pressure and plasma cytokine.
Mean systolic and diastolic blood pressure increased slightly from baseline in both groups at 24 hours. Descriptive statistics for systolic and diastolic blood pressure, which were taken both at baseline and at 24 hours, are summarized Table 26.

[4] = 5 ppm, discharge evaluation, N 26
[5] = 5 ppm, in words, approached statistical significance

In the case of `[N]=O` [Nitric Oxide, nitric oxide], the “completed 28 days of the study or successfully extubated” value ([1]; 5 ppm) is reported as 21 (80.8%) n (%), the “Days on supplemental O2, Median” value ([1]; 5 ppm, N 10) is reported as 18.1 days and the “Number of days on supplemental O2, Mean (SD)” value ([1]; 5 ppm, N 10) is reported as 19.6 (13.4) ^ days and 19.6 (13.4) days. For the same compound, the “Days originally intubated, Median” value ([1]; 5 ppm, N 20) was 13.7 days, the “Number of days originally intubated, Mean (SD)” value ([1]; 5 ppm, N 20) was 13.6 (6.8) ^ days and 13.6 (6.8) days and the “Days in PICU, Median” value ([1]; 5 ppm, N 22) was 17.3 days. The “Number of days in PICU, Mean (SD)” value ([1]; 5 ppm, N 22) was 17.8 (8.3) ^ days and 17.8 (8.3) days, the Clinical sepsis [1, 4] was 4 (15.4%) n (%) and the “Died (cause of death related to pulmonary condition)” value [1, 4] was 0 (0) ^ n (%). The “ECMO at any time during treatment” value [1, 4] was 0 (0) ^ n (%), the “HFOV at any time during treatment” value [1, 4] was 11 (42.3%) n (%) and the “Intubated on Day 28” value [1, 4] was 2 (7.7%) n (%). The Pneumothorax [1, 4] was 3 (11.5%) n (%), the “Receiving supplemental O2 on Day 28” value [1, 4] was 11 (42.3%) n (%) and the Survival [1, 4] was 23 (88.5%) n (%). For the same compound, the “VAP (ventilator-associated pneumonia)” value [1, 4] was 5 (19.2%) n (%), the “days in the PICU versus placebo” value ([1]; 5 ppm, in words) was “lower” and the “duration (mean number of days) of supplemental oxygen versus placebo” value ([1]; 5 ppm, in words) was “higher”. For the same compound, the “frequency of extracorporeal membrane oxygenation versus placebo” value ([1]; 5 ppm, in words) was “lower”, the “frequency of high frequency oscillatory ventilation versus placebo” value ([1]; 5 ppm, in words) was “lower” and the “frequency of pneumothorax versus placebo” value ([1]; 5 ppm, in words) was “lower”. For the same compound, the “frequency of ventilator-associated pneumonia at discharge versus placebo” value ([1]; 5 ppm, in words) was “higher”, the “mean duration (number of days) of intubation versus placebo” value ([1]; 5 ppm, in words) was “lower” and the “duration of mechanical ventilation (MV)” value [1, 5] was “shortened”. The rate of survival [1, 5] was “improved”, the “rate of ECMO free survival versus placebo” value ([1]; 5 ppm, in words, listed as iNO) was “significantly greater; also recorded: significantly higher” and the “Day 28 (completed 28 days)” value ([1]; 5 ppm, n = 26, subject outcome) was 1 (3.8%) n (%). For the same compound, the Death ([1]; 5 ppm, n = 26, subject outcome) was 2 (7.7%) n (%), the Successful extubation ([1]; 5 ppm, n = 26, subject outcome) was 20 (76.9%) n (%) and the Total discontinued ([1]; 5 ppm, n = 26, subject outcome) was 5 (19.2%) n (%). The “rate of ECMO free survival” value ([1]; 5 ppm, placebo 15 of 29, p<0.01) was 22 of 24, the “Survival at 28 days” value ([1]; 5 ppm, placebo 21 of 29, p=0.07) was 22 of 24 and the survival rate ([1]; 5 ppm, placebo 72.4%) was 88.5%. For the same compound, the “oxygenation index (OI)” value ([1]; 4 hours, 5 ppm, placebo 26.1+/−19.5, p=0.09) was 14.3+/−5.9, the “oxygenation index (OI)” value ([1]; 12 hours, 5 ppm, placebo 24.5+/−22.0, p=0.04) was 14.7+/−6.0 and the “oxygenation index (OI)” value ([1]; 24 hours, 5 ppm, placebo 16.7+/−9.9, p=0.53) was 15.2+/−10.8. The “number of days that a child is ventilator-free at 28 days after the start of iNO therapy” value ([1]; in words) was “increased”, the “Frequency of other (non-respiratory) AEs versus placebo” value [2] was “similar” and the “Respiratory system AEs, patients” value ([2]; placebo 61%) was 51%. The “adverse events (AEs) reported, total” value ([2]; placebo 666) was 630, the “Diastolic BP, Mean (SD)” value ([3]; 24 Hours) was 56.0 (12.7) mmHg and the “Diastolic BP, Median” value ([3]; 24 Hours) was 54.5 mmHg. The “Systolic BP, Mean (SD)” value ([3]; 24 Hours) was 97.9 (21.7) mmHg, the “Systolic BP, Median” value ([3]; 24 Hours) was 103.0 mmHg and the “Diastolic BP, Mean (SD)” value ([3]; Baseline) was 54.6 (11.6) mmHg. The “Diastolic BP, Median” value ([3]; Baseline) was 55.5 mmHg, the “Systolic BP, Mean (SD)” value ([3]; Baseline) was 94.4 (17.4) mmHg and the “Systolic BP, Median” value ([3]; Baseline) was 95.5 mmHg.
